Test results from paper PMC4774911, “Biochemical Screening of Five Protein Kinases from Plasmodium falciparum against 14,000 Cell-Active Compounds” (PLoS ONE, 2016).
pIC50: −log10 of the molar value. “And” between values parts separate entries of the source, which are not always exact repeats. Equal values may be shown once.

Tests used:
Experiment in all cases: biochemical
CLK1 = CLK1 (Homo sapiens, UniProt P49759)
EPHB4 = target: T1, EPHB4 (Homo sapiens, UniProt P54760)
T1 sequence (P54760 1-987): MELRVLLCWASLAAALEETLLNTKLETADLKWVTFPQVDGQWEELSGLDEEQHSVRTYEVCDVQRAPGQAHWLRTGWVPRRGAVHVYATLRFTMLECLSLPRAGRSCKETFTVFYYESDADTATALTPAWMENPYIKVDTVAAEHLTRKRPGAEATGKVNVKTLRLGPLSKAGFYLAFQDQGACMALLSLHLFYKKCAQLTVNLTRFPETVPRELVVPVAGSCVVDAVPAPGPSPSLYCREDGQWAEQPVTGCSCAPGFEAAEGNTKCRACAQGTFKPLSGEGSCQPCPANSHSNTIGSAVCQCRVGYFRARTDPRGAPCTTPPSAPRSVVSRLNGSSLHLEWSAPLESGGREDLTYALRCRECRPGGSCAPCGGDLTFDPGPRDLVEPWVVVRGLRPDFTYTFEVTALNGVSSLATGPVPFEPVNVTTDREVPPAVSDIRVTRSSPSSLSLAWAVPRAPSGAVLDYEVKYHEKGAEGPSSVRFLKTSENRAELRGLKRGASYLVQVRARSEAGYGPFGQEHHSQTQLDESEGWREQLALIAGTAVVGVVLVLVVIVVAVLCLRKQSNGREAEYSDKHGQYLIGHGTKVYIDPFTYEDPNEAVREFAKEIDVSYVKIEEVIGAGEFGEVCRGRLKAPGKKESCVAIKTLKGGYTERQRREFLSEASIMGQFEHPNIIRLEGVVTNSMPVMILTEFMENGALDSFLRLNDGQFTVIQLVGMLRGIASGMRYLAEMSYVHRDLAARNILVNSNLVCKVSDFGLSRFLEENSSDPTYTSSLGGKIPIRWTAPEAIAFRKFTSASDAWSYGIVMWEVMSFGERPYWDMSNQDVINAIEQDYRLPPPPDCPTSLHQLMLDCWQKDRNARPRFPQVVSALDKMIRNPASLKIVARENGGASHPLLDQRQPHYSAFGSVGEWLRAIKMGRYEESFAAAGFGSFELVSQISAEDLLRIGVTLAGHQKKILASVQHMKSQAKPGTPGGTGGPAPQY

GSK3A = GSK3A (Homo sapiens, UniProt P49840)
Chain of GSK3A (P49840 whole entry): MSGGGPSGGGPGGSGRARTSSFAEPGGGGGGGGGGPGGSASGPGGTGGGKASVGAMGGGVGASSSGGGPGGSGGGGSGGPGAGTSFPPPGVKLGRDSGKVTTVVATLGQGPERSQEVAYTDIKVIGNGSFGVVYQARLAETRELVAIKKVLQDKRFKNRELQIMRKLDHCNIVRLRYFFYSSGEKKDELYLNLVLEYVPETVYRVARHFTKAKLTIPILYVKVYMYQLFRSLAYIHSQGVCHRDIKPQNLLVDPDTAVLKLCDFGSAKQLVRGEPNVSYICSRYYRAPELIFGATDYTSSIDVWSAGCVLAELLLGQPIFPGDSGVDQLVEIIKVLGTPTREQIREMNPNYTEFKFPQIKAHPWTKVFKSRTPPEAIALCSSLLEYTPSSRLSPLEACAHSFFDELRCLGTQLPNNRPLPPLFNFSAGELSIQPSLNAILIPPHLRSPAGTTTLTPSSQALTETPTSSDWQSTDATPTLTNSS

KIAA0999 = KIAA0999 (Homo sapiens, UniProt Q9Y2K2)
Chain of KIAA0999 (Q9Y2K2 whole entry): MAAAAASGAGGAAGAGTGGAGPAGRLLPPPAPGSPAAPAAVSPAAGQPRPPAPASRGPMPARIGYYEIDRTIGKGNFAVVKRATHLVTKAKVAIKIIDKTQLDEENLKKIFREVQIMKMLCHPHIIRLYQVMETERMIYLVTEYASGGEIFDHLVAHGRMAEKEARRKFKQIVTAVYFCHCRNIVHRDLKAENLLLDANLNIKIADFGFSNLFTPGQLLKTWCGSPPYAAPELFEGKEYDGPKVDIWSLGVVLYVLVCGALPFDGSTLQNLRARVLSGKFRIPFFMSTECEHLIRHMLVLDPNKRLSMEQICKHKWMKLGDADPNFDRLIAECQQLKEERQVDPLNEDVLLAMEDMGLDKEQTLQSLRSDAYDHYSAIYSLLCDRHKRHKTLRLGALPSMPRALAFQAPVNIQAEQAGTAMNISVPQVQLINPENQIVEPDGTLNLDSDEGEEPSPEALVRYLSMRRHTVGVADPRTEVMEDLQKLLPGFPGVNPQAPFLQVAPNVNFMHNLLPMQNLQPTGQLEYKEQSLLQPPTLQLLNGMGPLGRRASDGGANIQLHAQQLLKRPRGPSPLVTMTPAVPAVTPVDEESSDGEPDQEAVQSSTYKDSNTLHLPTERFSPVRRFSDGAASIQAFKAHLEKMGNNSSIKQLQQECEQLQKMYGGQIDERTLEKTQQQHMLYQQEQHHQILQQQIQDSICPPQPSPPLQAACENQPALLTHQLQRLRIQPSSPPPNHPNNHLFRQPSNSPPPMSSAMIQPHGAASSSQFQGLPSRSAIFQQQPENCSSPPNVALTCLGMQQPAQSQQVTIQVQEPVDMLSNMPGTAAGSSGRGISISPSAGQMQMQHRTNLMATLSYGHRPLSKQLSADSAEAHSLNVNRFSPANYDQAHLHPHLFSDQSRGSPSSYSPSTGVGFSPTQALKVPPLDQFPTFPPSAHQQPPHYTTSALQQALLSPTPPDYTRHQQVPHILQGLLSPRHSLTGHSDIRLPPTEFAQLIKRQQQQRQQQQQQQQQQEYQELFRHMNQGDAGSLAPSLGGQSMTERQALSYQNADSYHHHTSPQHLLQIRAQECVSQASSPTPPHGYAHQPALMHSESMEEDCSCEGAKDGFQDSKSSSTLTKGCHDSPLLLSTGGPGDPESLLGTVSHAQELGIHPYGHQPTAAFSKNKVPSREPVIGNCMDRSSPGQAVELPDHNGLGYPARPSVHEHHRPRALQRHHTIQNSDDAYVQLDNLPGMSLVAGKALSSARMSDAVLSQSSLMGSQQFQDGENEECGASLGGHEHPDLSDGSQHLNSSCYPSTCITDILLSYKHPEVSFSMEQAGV

MYLK3 = target: T2, MYLK3 (Homo sapiens, UniProt Q32MK0)
T2 sequence (Q32MK0 1-819): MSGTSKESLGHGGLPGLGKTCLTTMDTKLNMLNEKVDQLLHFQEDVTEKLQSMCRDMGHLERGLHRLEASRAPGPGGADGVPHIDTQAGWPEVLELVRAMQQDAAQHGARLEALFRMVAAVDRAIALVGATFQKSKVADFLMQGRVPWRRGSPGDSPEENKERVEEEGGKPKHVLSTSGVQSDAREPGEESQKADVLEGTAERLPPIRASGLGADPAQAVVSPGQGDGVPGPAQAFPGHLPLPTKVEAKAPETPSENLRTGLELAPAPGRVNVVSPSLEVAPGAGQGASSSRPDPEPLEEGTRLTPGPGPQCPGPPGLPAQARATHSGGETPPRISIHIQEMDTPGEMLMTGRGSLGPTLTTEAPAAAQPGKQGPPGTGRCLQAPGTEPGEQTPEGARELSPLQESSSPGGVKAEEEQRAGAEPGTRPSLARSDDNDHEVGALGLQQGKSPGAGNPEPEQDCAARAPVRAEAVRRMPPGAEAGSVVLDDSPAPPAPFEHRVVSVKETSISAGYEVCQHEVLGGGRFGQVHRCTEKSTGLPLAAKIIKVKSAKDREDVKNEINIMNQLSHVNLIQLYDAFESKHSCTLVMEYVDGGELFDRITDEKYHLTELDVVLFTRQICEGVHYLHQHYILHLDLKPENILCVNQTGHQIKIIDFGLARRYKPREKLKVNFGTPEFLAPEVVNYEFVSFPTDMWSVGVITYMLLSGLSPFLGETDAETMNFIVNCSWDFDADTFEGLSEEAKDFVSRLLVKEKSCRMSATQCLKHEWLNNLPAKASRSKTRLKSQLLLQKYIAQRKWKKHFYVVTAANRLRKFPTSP

PIP5K3 = PIP5K3 (Homo sapiens, UniProt Q9Y2I7)
Chain of PIP5K3 (Q9Y2I7 whole entry): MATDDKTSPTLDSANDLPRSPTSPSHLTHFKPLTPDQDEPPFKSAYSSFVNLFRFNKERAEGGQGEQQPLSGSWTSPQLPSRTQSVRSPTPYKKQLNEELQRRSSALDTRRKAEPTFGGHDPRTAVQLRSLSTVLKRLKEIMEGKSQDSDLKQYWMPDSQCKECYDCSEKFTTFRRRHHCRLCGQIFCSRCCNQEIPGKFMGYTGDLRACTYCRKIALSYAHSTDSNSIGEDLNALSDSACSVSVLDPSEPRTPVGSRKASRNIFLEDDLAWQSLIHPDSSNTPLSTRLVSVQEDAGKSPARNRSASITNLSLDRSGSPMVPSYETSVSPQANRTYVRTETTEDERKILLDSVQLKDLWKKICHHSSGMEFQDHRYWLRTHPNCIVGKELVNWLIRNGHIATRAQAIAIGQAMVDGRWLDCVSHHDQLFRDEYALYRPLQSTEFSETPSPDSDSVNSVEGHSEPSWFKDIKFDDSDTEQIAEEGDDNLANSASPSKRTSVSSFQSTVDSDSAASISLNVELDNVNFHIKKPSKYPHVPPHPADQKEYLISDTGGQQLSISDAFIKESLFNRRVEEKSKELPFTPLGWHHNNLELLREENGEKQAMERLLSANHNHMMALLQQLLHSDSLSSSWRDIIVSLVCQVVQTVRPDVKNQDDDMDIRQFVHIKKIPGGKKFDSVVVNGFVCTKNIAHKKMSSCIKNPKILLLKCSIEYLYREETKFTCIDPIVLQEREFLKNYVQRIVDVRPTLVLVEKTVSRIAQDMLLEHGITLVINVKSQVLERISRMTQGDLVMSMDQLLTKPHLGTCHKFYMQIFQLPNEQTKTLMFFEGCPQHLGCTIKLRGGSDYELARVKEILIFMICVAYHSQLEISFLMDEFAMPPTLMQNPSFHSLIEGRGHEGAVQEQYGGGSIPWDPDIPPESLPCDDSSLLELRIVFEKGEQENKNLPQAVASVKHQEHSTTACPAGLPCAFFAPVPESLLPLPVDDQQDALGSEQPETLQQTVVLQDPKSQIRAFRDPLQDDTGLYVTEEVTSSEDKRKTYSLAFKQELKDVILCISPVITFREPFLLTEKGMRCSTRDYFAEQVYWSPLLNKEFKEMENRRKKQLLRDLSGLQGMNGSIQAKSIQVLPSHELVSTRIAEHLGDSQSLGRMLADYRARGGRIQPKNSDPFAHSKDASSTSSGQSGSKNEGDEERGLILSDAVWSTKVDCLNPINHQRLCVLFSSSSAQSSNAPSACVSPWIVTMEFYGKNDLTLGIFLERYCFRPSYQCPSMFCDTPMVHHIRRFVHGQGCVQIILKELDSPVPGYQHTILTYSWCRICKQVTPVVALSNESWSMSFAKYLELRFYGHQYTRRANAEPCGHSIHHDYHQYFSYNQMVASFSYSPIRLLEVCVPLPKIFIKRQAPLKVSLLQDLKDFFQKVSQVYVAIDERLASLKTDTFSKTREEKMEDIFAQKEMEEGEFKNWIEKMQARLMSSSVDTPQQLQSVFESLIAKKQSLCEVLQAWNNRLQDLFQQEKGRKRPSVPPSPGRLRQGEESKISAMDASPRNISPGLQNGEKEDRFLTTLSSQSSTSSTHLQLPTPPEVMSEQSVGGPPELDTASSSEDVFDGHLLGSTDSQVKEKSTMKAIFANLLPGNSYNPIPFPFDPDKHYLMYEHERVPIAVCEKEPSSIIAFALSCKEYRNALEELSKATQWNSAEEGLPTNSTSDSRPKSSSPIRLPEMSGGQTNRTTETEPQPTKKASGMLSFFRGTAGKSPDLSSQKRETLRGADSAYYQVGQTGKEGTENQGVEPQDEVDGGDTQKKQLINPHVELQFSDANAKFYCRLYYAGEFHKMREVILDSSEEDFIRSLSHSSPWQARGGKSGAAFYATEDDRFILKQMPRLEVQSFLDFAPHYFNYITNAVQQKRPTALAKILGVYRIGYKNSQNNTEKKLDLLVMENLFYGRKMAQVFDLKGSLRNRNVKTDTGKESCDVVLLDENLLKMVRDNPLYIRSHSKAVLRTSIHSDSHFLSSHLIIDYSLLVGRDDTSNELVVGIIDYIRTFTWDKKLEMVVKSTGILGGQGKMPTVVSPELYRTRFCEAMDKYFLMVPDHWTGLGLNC

STK17A = target: T3, STK17A (Homo sapiens, UniProt Q9UEE5)
T3 sequence (Q9UEE5 1-414): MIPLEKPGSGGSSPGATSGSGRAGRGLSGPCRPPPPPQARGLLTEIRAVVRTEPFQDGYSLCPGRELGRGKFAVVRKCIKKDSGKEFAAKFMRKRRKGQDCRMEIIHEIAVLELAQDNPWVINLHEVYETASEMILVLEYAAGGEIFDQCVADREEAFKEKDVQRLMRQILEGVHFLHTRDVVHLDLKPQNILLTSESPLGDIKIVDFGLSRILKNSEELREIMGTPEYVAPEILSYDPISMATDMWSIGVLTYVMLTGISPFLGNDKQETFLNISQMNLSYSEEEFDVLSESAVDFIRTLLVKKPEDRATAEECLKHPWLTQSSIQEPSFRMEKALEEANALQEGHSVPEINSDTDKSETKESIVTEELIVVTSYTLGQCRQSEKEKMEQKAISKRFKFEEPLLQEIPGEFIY

STK39 = STK39 (Homo sapiens, UniProt Q9UEW8)

Chain of CLK1 (P49759 whole entry): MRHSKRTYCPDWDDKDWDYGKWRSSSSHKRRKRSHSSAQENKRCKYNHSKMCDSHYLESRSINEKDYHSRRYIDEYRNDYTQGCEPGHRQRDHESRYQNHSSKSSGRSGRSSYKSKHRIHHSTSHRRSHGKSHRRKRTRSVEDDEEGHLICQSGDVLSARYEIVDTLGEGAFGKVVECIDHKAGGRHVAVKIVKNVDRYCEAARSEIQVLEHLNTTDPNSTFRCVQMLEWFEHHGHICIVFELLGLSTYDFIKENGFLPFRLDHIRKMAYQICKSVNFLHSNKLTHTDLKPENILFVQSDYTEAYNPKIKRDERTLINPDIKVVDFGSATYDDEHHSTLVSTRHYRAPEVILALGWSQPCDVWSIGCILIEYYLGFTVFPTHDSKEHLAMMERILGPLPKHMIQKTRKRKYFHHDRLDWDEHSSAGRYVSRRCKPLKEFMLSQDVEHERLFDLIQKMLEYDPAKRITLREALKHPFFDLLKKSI

Structure (SMILES)	pIC50 (CLK1)	pIC50 (EPHB4)	pIC50 (GSK3A)	pIC50 (KIAA0999)	pIC50 (MYLK3)	pIC50 (PIP5K3)	pIC50 (STK17A)	pIC50 (STK39)
CN1CCN(c2ccc(Nc3ncc(C#N)c(Nc4ccccc4C(N)=O)n3)cc2)CC1.Cl [TCMDC-134116]	7.33 and 7.32	5.37	5.85 and 5.96	6.46 and 6.60	7.17 and 7.03	5.89 and 5.82	6.74	7.17
Cl.NCC1(c2nc(-c3ccc(Cl)c(O)c3)c(-c3ccncc3)[nH]2)CCCCC1 [TCMDC-141154]	< 4.70	5.28	< 4.70	7.18 and 7.29	< 4.70	6.00	< 4.70	< 4.70
CN(C)CC(O)COc1ccc(Nc2ncc([N+](=O)[O-])c(Nc3ccccc3O)n2)cc1.O=C(O)C(F)(F)F (stereo not drawn) [TCMDC-141399]	6.41 and 6.57	< 4.70	5.17 and 5.13	< 4.70	5.68 and 5.74	5.12 and 5.28	5.38	5.26
